LC50 data for three molecules are collected here from US6720450B2, “Pesticidal activity of functionalized cyclopropanes” (North Carolina State University, priority 2001, dated 2004).

Each structure is given as a SMILES string.

The test has as its system mosquito larvae. The experiment in a line: Mosquito larval mortality bioassay in microtiter plates. Format: in vivo. To be noted: 72 h; larval mortality followed for three days; 160 μL sterile water, 1-4 μL test compound in dimethylsulfoxide, 10 μL 2% Brewer's yeast. The procedure:
The term “LC50” also is used hereinafter and refers to the concentration of a pest-controlling compound of the invention in the ambient environment of the pest species that is able to cause a 50% mortality of such species. For example, in tests described hereinafter, wherein compounds of the invention are tested for pesticidal efficacy against mosquito larvae, the compounds are present in a state of dynamic equilibrium in the aqueous environment containing the yeast and are taken up by the filter-feeding mosquito larvae during their feeding on the yeast.
Mosquito larval mortality was followed for three days in microtiter plates containing 160 μL sterile water, 1-4 μL of the test compound dissolved in dimethylsulfoxide, and 10 μL of 2% Brewer's yeast.
Mosquito larval mortality was followed for three days in microtiter plates containing 160 μL sterile water, 1-4 μL of the test compound dissolved in dimethylsulfoxide, and 10 μL of 2% Brewer's yeast. Controls were run under the same conditions without the test compounds. Larval mortality in the controls was 3% for 1-3 μL dimethylsulfoxide, and up to 20% for 4 μL dimethylsulfoxide.
`O=C(O)CCC1CC1CCc1ccccc1` (stereo not drawn) [IBI-215, 7-Phenyl-trans-(4,5-methano)heptanoic acid] showed an LC50 of 180 ± 30 µM.
The value for `O=C(O)CCC1CC1CCC1CCCCC1` (stereo not drawn) [IBI-216, 7-Cyclohexyl-trans-(4,5-methano)heptanoic acid] was 300 ± 10 µM; that for `O=C(O)CCC1CC1CCc1ccc(-c2ccccc2)cc1` (stereo not drawn) [IBI-217, 7-(4-Phenyl)phenyl-trans-(4,5-methano)heptanoic acid] was 130 ± 40 µM.

Usually LC50 stands for the concentration lethal to half of the exposed cells or organisms. Read a low LC50 as a more lethal substance.
